In ChEMBL document CHEMBL3044948, “Synthesis and Herbicidal Activity of N-(1-Arylethenyl)-2-chloroacetamides” (Agric Biol Chem, 1991):
Active and inactive are the calls of the source. No cut-off for these calls is given here.

How the values were obtained:
[1] = test system: Echinochloa oryzicola; test: Herbicidal activity against Echinochloa oryzicola at 1 g a.i/a measured after 3 weeks; assay type: functional, organism-based
[2] = test system: Echinochloa oryzicola; test: Herbicidal activity against Echinochloa oryzicola at 10 g a.i/a measured after 3 weeks; assay type: functional, organism-based

Row | SMILES | Activity [1] | Activity [2]
1 | C=C(c1ccc(Cl)cc1)N(C(=O)CCl)c1c(C)cccc1C | inactive | Active
2 | C=C(c1ccccc1)N(CC1CCCO1)C(=O)CCl (stereo not given) | – | Active
3 | C=C(c1ccccc1)N(C(=O)CCl)c1cc(C)nn1C | – | inactive
4 | CC(C)=C(c1ccccc1)N(C(=O)CCl)c1c(C)cccc1C | – | inactive
5 | CCCCCCN(C(=O)CCl)C(=C(C)C)c1ccccc1 | Active | Active
6 | CC(C)=C(c1ccccc1)N(C(=O)CCl)C(C)C | – | Active
7 | CC=C(c1ccccc1)N(C(=O)CCl)c1c(C)cccc1C (mixture of isomers) | inactive | Active
8 | C=C(c1ccc(Cl)c(Cl)c1)N(C(=O)CCl)c1c(C)cccc1C | – | inactive
9 | C=C(c1ccccc1Cl)N(C(=O)CCl)c1c(C)cccc1C | Active | Active
10 | C=C(c1ccccc1)N(C(=O)CCl)c1c(C)cccc1CC | Active | Active
11 | C=C(c1ccccc1)N(C(=O)CCl)c1ccccc1C | – | inactive
12 | C=C(c1ccccc1OC)N(C(=O)CCl)c1c(C)cccc1C | Active | Active
13 | C=C(c1ccccc1)N(C(=O)CCl)c1c(CC)cccc1CC | inactive | Active
14 | C=C(c1cccc(Br)c1)N(C(=O)CCl)c1c(C)cccc1C | inactive | Active
15 | CC(C)=C(c1ccccc1)N(C(=O)CCl)c1ccccc1 | – | inactive
16 | C=C(c1ccccc1)N(C(=O)CCl)c1ccccc1OC | – | Active
17 | C/C=C(\c1ccccc1)N(CCCC)C(=O)CCl | inactive | Active
18 | CC(C)=C(c1ccccc1)N(C(=O)CCl)c1ccc(Cl)cc1 | – | Active
19 | C=C(c1ccc(OC)cc1)N(CCCCCC)C(=O)CCl | – | Active
20 | CCCN(C(=O)CCl)C(=C(C)C)c1ccccc1 | inactive | Active

Row | SMILES | Activity [1] | Activity [2]
21 | C=C(c1ccc(OC)cc1)N(C(=O)CCl)c1c(C)cccc1C | inactive | Active
22 | C=C(c1ccc(C#N)cc1)N(C(=O)CCl)c1c(C)cccc1C | inactive | Active
23 | CC(C)=C(c1ccccc1)N(Cc1ccco1)C(=O)CCl | Active | Active
24 | C=C(c1ccco1)N(C(=O)CCl)c1c(C)cccc1C | – | Active
25 | C=C(c1ccccc1C)N(C(=O)CCl)c1c(C)cccc1C | Active | Active
26 | CCN(C(=O)CCl)C(=C(C)C)c1ccccc1 | Active | Active
27 | C=C(c1ccc2ccccc2c1)N(C(=O)CCl)c1c(C)cccc1C | – | inactive
28 | CCC(C)N(C(=O)CCl)C(=C(C)C)c1ccccc1 (stereo not given) | – | inactive
29 | C=C(c1ccccc1)N(C(=O)CCl)c1ccccc1 | – | inactive
30 | C=C(c1ccccc1)N(C(=O)CCl)c1c(C)cccc1C | Active | Active
31 | C=C(c1ccc(SC)s1)N(C(=O)CCl)c1c(C)cccc1C | – | inactive
32 | C=C(c1cccn1C)N(C(=O)CCl)c1c(C)cccc1C | – | inactive
33 | C=CCN(C(=O)CCl)/C(=C/C)c1ccccc1 | inactive | Active
34 | C=CCN(C(=O)CCl)C(=C(C)C)c1ccccc1 | Active | Active
35 | CC(C)=C(c1ccccc1)N(CC(C)C)C(=O)CCl | – | inactive
36 | C=C(c1cccc([N+](=O)[O-])c1)N(C(=O)CCl)c1c(C)cccc1C | – | Active
37 | CC(C)=C(c1ccccc1)N(C)C(=O)CCl | Active | Active
38 | CC(C)=C(c1ccccc1)N(Cc1ccccc1)C(=O)CCl | Active | Active
39 | C=C(c1ccccc1)N(C(=O)CCl)c1c(Cl)cccc1Cl | – | inactive
40 | C=C(c1ccccc1)N(C(=O)CCl)c1cccc2ccccc12 | – | inactive
